Measurements published in patent US8003655B2, “Substituted sulphoximines as TIE2 inhibitors and salts thereof, pharmaceutical compositions comprising same, methods of preparing same and uses of same” (Bayer Schering Pharma AG, priority 2006, dated 2011).

Experiments:
Format in all cases: biochemical
[1] = molecular target: T1, Tie2 (Homo sapiens, UniProt Q02763); assay: Tie2-Kinase HTRF-Assay without kinase preactivation (assay 2); conditions: 10 μM ATP, pIC50 = −log IC50 in molar concentration, read-out: Tie 2 activity (assay 2)
T1 construct: A recombinant fusion protein of GST and the intracellular domains of Tie2; GST; made in house; host or cells: insect cells (Hi-5)
T1 sequence (Q02763 770-1124 limits assumed): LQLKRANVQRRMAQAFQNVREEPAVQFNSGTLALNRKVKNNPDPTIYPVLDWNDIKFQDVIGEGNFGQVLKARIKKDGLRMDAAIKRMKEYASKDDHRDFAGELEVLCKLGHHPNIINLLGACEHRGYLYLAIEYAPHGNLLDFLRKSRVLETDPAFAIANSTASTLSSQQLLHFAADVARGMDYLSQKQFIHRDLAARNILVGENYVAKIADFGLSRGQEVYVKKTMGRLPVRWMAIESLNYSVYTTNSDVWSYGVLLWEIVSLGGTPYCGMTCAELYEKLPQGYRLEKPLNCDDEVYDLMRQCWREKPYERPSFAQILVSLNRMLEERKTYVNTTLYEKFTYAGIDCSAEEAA
Excerpt: Tie2-inhibitory activity of compounds of the present invention was quantified employing two Tie2 HTRF assay as described in the following paragraphs.
A recombinant fusion protein of GST and the intracellular domains of Tie2, expressed in insect cells (Hi-5) and purified by Glutathion-Sepharose affinity chromatography was used as kinase. Alternatively, commercially available GST-Tie2-fusion protein (Upstate Biotechnology, Dundee, Scotland) can be used as substrate for the kinase reaction the biotinylated peptide biotin-Ahx-EPKDDAYPLYSDFG (C-terminus in amid form) was used which can be purchased e.g. from the company Biosynthan GmbH (Berlin-Buch, Germany). Detection of phosphorylated product is achieved specifically by a trimeric detection complex consisting of the phosphorylated substrate, streptavidin-XLent (SA-XLent) which binds to biotin, and Europium Cryptate-labeled anti-phosphotyrosine antibody PT66 which binds to phosphorylated tyrosine.
Tie2 (3.5 ng/measurement point) was incubated for 60 min at 22° C. in the presence of 10 μM adenosine-tri-phosphate (ATP) and 1 μM substrate peptide (biotin-Ahx-EPKDDAYPLYSDFG-NH2) with different concentrations of test compounds (0 μM and concentrations in the range 0.001-20 μM) in 5 μl assay buffer [50 mM Hepes/NaOH pH 7, 10 mM MgCl2, 0.5 mM MnCl2, 1.0 mM dithiothreitol, 0.01% NP40, protease inhibitor mixture (“Complete w/o EDTA” from Roche, 1 tablet per 2.5 ml), 1% (v/v) dimethylsulfoxide]. The reaction was stopped by the addition of 5 μl of an aqueous buffer (25 mM Hepes/NaOH pH 7.5, 0.28% (w/v) bovine serum albumin) containing EDTA (90 mM) and the HTRF (Homogeneous Time Resolved Fluorescence) detection reagents streptavidine-XLent (0.2 μM, from Cis Biointernational, Marcoule, France) and PT66-Eu-Chelate (0.3 ng/μl; a europium-chelate labelled anti-phospho-tyrosine antibody from Perkin Elmer).
(§1) The resulting mixture was incubated 1 h at 22° C. to allow the binding of the biotinylated phosphorylated peptide to the streptavidine-XLent and the PT66-Eu-Chelate. Subsequently the amount of phosphorylated substrate peptide was evaluated by measurement of the resonance energy transfer from the PT66-Eu-Chelate to the streptavidine-XLent. Therefore, the fluorescence emissions at 620 nm and 665 nm after excitation at 350 nm was measured in a HTRF reader, e.g. a Rubystar (BMG Labtechnologies, Offenburg, Germany) or a Viewlux (Perkin-Elmer). The ratio of the emissions at 665 nm and at […] was taken as the measure for the amount of phosphorylated substrate peptide. The data were normalised (enzyme reaction without inhibitor=0% inhibition, all other assay components but no enzyme=100% inhibition) and IC50 values were calculated by a 4 parameter fit using an inhouse software.

[2] = molecular target: T2, preactivated Tie2 (Homo sapiens, UniProt Q02763); assay: Tie2-Kinase HTRF-Assay with kinase preactivation (assay 3); conditions: 10 μM ATP, pIC50 = −log IC50 in molar concentration, read-out: Tie 2 activity (assay 3)
T2 construct: A recombinant fusion protein of GST and the intracellular domains of Tie2; GST; made in house; host or cells: insect cells (Hi-5)
T2 sequence (Q02763 770-1124 limits assumed): as above
Method: Assay 3: Tie2-Kinase HTRF-Assay with Kinase Preactivation
A recombinant fusion protein of GST and the intracellular domains of Tie2, expressed in insect cells (Hi-5) and purified by Glutathion-Sepharose affinity chromatography was used as kinase. As substrate for the kinase reaction the biotinylated peptide biotin-Ahx-EPKDDAYPLYSDFG (C-terminus in amid form) was used which can be purchased e.g. from the company Biosynthan GmbH (Berlin-Buch, Germany).
For activation, Tie2 was incubated at a conc. 12.5 ng/μl of for 20 min at 22° C. in the presence of 250 μM adenosine-tri-phosphate (ATP) in assay buffer [50 mM Hepes/NaOH pH 7, 10 mM MgCl2, 0.5 mM MnCl2, 1.0 mM dithiothreitol, 0.01% NP40, protease inhibitor mixture (“Complete w/o EDTA” from Roche, 1 tablet per 2.5 ml)].
For the subsequent kinase reaction, the preactivated Tie2 (0.5 ng/measurement point) was incubated for 20 min at 22° C. in the presence of 10 μM adenosine-tri-phosphate (ATP) and 1 μM substrate peptide (biotin-Ahx-EPKDDAYPLYSDFG-NH2) with different concentrations of test compounds (0 μM and concentrations in the range 0.001-20 μM) in 5 μl assay buffer [50 mM Hepes/NaOH pH 7, 10 mM MgCl2, 0.5 mM MnCl2, 0.1 mM sodium ortho-vanadate, 1.0 mM dithiothreitol, 0.01% NP40, protease inhibitor mixture (“Complete w/o EDTA” from Roche, 1 tablet per 2.5 ml), 1% (v/v) dimethylsulfoxide]. The reaction was stopped by the addition of 5 μl of an aqueous buffer (25 mM Hepes/NaOH pH 7.5, 0.28% (w/v) bovine serum albumin) containing EDTA (90 mM) and the HTRF (Homogeneous Time Resolved Fluorescence) detection reagents streptavidine-XLent (0.2 μM, from Cis Biointernational, Marcoule, France) and PT66-Eu-Chelate (0.3 ng/μl; a europium-chelate labelled anti-phospho-tyrosine antibody from Perkin Elmer).
as §1

[3] = molecular target: T3, CDK2/CycE (Homo sapiens, UniProt P24941); assay: CDK2 HTRF Assay (assay 4); conditions: 10 μM ATP, pIC50 = −log IC50 in molar concentration
T3 construct: GST; purchased ProQinase GmbH (Freiburg, Germany); host or cells: insect cells (Sf9)
Excerpt: CDK2/CycE-inhibitory activity of compounds of the present invention was quantified employing the CDK2/CycE HTRF assay as described in the following paragraphs.
Recombinant fusion proteins of GST and human CDK2 and of GST and human CycE, expressed in insect cells (Sf9) and purified by Glutathion-Sepharose affinity chromatography, were purchase from ProQinase GmbH (Freiburg, Germany). As substrate for the kinase reaction biotinylated peptide biotin-Ttds-YISPLKSPYKISEG (C-terminus in amid form) was used which can be purchased e.g. form the company JERINI peptide technologies (Berlin, Germany).
CDK2/CycE was incubated for 60 min at 22° C. in the presence of different concentrations of test compounds in 5 μl assay buffer [50 mM Tris/HCl pH 8.0, 10 mM MgCl2, 1.0 mM dithiothreitol, 0.1 mM sodium ortho-vanadate, 10 μM adenosine-tri-phosphate (ATP), 0.75 μM substrate, 0.01% (v/v) Nonidet-P40 (Sigma), 1% (v/v) dimethylsulfoxide]. The concentration of CDK2/CycE was adjusted depending of the activity of the enzyme lot and was chosen appropriate to have the assay in the linear range, typical concentrations were in the range of 1 ng/ml. The reaction was stopped by the addition of 5 μl of a solution of HTRF detection reagents (0.2 μM streptavidine-XLent and 3.4 nM Phospho-(Ser) CDKs Substrate Antibody [product #2324B, Cell Signalling Technology, Danvers, Mass., USA} and 4 nM Prot-A-EuK [Protein A labeled with Europium Cryptate from Cis biointernational, France, product no. 61PRAKLB]) in an aqueous EDTA-solution (100 mM EDTA, 800 mM KF, 0.2% (w/v) bovine serum albumin in 100 mM HEPES/NaOH pH 7.0).

IC50 [1] [nM]	IC50 [2] [nM]	IC50 [3] [nM]	SMILES
< 100	100 to 1000	> 10000	C[C@H](CO)Nc1nc(Nc2cccc(S(C)(=N)=O)c2)ncc1-c1ccc(NC(=O)C2(c3ccccc3)CC2)cc1 (mixture of isomers) [Example 33, N-{4-[4-{[(R)-2-Hydroxy-1-methylethyl]amino}-2-({3-[(RS)-S-methylsulfonimidoyl]phenyl}amino)pyrimidin-5-yl]phenyl}-1-phenylcyclopropanecarboxamide]
100 to 1000	< 100	> 10000	C[C@H](CO)Nc1nc(Nc2cccc(S(C)(=N)=O)c2)ncc1-c1ccc(NS(=O)(=O)c2cccc(Cl)c2Cl)c(F)c1 (mixture of isomers) [Example 42, 2,3-Dichloro-N-[2-fluoro-4-(4-{[(R)-2-hydroxy-1-methylethyl]amino}-2-{[3-(RS)-(S-methylsulfonimidoyl)phenyl]amino}-pyrimidin-5-yl)phenyl]benzene-sulfonamide]
< 100	< 100	> 10000	CCOC(=O)N=S(C)(=O)c1cccc(Nc2ncc(-c3ccc(NC(=O)Nc4cc(C(F)(F)F)ccc4F)c(F)c3)c(OC)n2)c1 (racemic) [Example 31, 1-{4-[2-({3-[(RS)-N-(Ethoxycarbonyl)-S-methylsulfonimidoyl]phenyl}amino)-4-(methoxy)-pyrimidin-5-yl]-2-fluorophenyl}-3-[2-fluoro-5-(trifluoromethyl)-phenyl]urea]
< 100	< 100	> 10000	CS(=N)(=O)c1cccc(Nc2ncc(-c3ccc(NC(=O)Nc4cc(C(F)(F)F)ccc4F)c(F)c3)c(NCCCN3CCOCC3)n2)c1 (racemic) [Example 43, 1-[2-Fluoro-4-(2-{[3-(RS)-(S-methylsulfonimidoyl)phenyl]amino}-4-[(3-morpholin-4-ylpropyl)amino]-pyrimidin-5-yl)phenyl]-3-[2-fluoro-5-(trifluoromethyl)-phenyl]urea]
100 to 1000	–	> 10000	CS(=N)(=O)c1cccc(Nc2ncc(-c3ccc(NC(=O)Nc4cc(C(F)(F)F)ccc4F)c(F)c3)c(NCCc3ccccc3)n2)c1 (racemic) [Example 48, 1-[2-Fluoro-4-(2-{[3-(RS)-(S-methylsulfonimidoyl)phenyl]amino}-4-[(2-phenylethyl)amino]-pyrimidin-5-yl)phenyl]-3-[2-fluoro-5-(trifluoromethyl)-phenyl]urea]

Second part, the compound before the results:

SMILES	IC50 [1] [nM]	IC50 [2] [nM]	IC50 [3] [nM]
CCOC(=O)N=S(C)(=O)c1cccc(Nc2ncc(-c3ccc(NS(=O)(=O)c4cccc(Cl)c4Cl)cc3)c(N[C@H](C)CO)n2)c1 (mixture of isomers) [Example 2, 2,3-Dichloro-N-{4-[2-({3-[(RS)-N-(ethoxycarbonyl)-S-methylsulfonimidoyl]phenyl}amino)-4-{[(R)-2-hydroxy-1-methylethyl]amino}pyrimidin-5-yl]-phenyl}benzenesulfonamide]	100 to 1000	100 to 1000	> 10000
CCOC(=O)N=S(C)(=O)c1ccc(Nc2ncc(-c3ccc(NC(=O)Nc4cccc(C(F)(F)F)c4)cc3)c(N[C@H](C)CO)n2)cc1 (mixture of isomers) [Example 7, 1-{4-[2-({4-[(RS)-N-(Ethoxycarbonyl)-S-methylsulfonimidoyl]phenyl}amino)-4-{[(R)-2-hydroxy-1-methylethyl]amino}-pyrimidin-5-yl]-phenyl}-3-[3-(trifluoromethyl)-phenyl]urea]	< 100	< 100	> 10000
CCOC(=O)N=S(C)(=O)c1cccc(Nc2ncc(-c3ccc(NC(=O)C4(c5ccccc5)CC4)cc3)c(N[C@H](C)CO)n2)c1 (mixture of isomers) [Example 9, N-{4-[2-({3-[(RS)-N-(Ethoxycarbonyl)-S-methylsulfonimidoyl]phenyl}amino)-4-{[(R)-2-hydroxy-1-methylethyl]amino}-pyrimidin-5-yl]phenyl}-1-phenylcyclopropane-carboxamide]	100 to 1000	100 to 1000	> 10000
CCOC(=O)N=S(C)(=O)c1cccc(Nc2ncc(-c3ccc(NS(=O)(=O)c4cccc(Cl)c4Cl)c(F)c3)c(N[C@H](C)CO)n2)c1 (mixture of isomers) [Example 13, 2,3-Dichloro-N-{4-[2-({3-[(RS)-N-(ethoxycarbonyl)-S-methylsulfonimidoyl]phenyl}amino)-4-{[(R)-2-hydroxy-1-methylethyl]amino}-pyrimidin-5-yl]-2-fluorophenyl}-benzenesulfonamide]	100 to 1000	100 to 1000	> 10000
CCOC(=O)N=S(C)(=O)c1cccc(Nc2ncc(-c3ccc(NC(=O)Nc4cc(C(F)(F)F)ccc4F)c(F)c3)c(NCCN3CCN(C)CC3)n2)c1 (racemic) [Example 28, 1-{4-[2-({3-[(RS)-N-(Ethoxycarbonyl)-S-methylsulfonimidoyl]phenyl}amino)-4-{[2-(N-methyl-piperazin-4-yl)ethyl]amino}pyri-midin-5-yl]-2-fluorophenyl}-3-[2-fluoro-5-(trifluoromethyl)-phenyl]urea]	< 100	100 to 1000	> 10000
